According to patent publication US10913733B2, “Substituted piperidines thiazolyl acetamides as glycosidase inhibitors and uses thereof” (priority 2015, dated 2021):

Target: human O-GlcNAcase (Homo sapiens (Human), UniProt O60502)
Assay: Assay for determination of KI values for inhibition of O-GlcNAcase activity
Type: biochemical
Settings: purified human O-GlcNAcase 0.7 nM; substrate 2 mM 4-Methylumbelliferyl N-acetyl-β-D-glucosaminide; pH 7.0; room temperature; Cheng-Prusoff; read-out: hOGA Ki
Experimental: Assay for Determination of KI Values for Inhibition of O-GlcNAcase Activity
Experimental procedure for kinetic analyses: Enzymatic reactions were carried out in a reaction containing 50 mM NaH2PO4, 100 mM NaCl and 0.1% BSA (pH 7.0) using 2 mM 4-Methylumbelliferyl N-acetyl-β-D-glucosaminide dihydrate (Sigma M2133) dissolved in ddH2O, as a substrate. The amount of purified human O-GlcNAcase enzyme used in the reaction was 0.7 nM. Test compound of varying concentrations was added to the enzyme prior to initiation of the reaction. The reaction was performed at room temperature in a 96-well plate and was initiated with the addition of substrate. The production of fluorescent product was measured every 60 sec for 45 min with a Tecan Infinite M200 plate-reader with excitation at 355 nm and emission detected at […], with 4-Methylumbelliferone (Sigma M1381) used to produce a standard curve. The slope of product production was determined for each concentration of compound tested and plotted, using standard curve fitting algorithms for sigmoidal dose response curves. The values for a four parameter logistic curve fit of the data were determined. KI values were determined using the Cheng-Prusoff equation; the Km of O-GlcNAcase for substrate was 0.2 mM.

Chain of human O-GlcNAcase (O60502 whole entry): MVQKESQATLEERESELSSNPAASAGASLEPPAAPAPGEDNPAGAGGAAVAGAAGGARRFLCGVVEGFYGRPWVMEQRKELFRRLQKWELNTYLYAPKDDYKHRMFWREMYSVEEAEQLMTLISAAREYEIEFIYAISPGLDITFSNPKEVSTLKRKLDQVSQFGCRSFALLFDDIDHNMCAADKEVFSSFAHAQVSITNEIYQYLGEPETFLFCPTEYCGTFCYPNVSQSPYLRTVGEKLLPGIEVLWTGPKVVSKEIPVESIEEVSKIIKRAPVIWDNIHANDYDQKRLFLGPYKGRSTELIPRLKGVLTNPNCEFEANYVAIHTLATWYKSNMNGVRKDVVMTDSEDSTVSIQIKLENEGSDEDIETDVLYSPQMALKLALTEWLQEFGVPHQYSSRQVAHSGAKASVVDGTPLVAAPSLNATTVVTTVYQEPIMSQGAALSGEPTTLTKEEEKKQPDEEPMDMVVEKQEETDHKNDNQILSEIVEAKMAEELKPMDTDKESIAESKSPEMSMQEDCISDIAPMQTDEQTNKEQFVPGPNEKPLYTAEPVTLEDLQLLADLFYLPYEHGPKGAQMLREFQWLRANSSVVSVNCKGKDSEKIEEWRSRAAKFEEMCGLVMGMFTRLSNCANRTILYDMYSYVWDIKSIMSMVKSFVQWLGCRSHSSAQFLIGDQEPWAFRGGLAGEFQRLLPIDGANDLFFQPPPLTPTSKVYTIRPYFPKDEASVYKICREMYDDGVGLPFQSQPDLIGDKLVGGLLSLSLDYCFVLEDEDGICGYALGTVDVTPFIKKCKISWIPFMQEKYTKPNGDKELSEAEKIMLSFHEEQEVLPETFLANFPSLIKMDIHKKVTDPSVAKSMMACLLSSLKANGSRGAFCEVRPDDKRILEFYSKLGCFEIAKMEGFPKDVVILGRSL

SMILES | Ki
COc1ccc(/C=C2\CCN(Cc3cnc(NC(C)=O)s3)[C@@H](C)C2)cc1 [Example 41, (S,E)-N-(5-((4-(4-methoxybenzylidene)-2-methylpiperidin-1-yl)methyl)thiazol-2-yl)acetamide] | 9.61 nM
CC(=O)Nc1ncc(CN2CCC(=Cc3ccc(OCCF)cc3)CC2)s1 [Example 42, N-{5-[(4-{[4-(2-fluoroethoxy)phenyl]methylidene}piperidin-1-yl)methyl]-1,3-thiazol-2-yl}acetamide] | 0.625 nM
COc1cccc(C=C2CCN(Cc3cnc(NC(C)=O)s3)CC2)c1 [Example 43, N-(5-((4-(3-methoxybenzylidene)piperidin-1-yl)methyl)thiazol-2-yl)acetamide] | 2.93 nM
CC(=O)Nc1ncc(CN2CCC(=Cc3cccc(O)c3)CC2)s1 [Example 44, N-(5-((4-(3-hydroxybenzylidene)piperidin-1-yl)methyl)thiazol-2-yl)acetamide] | 1.13 nM
C=CCOc1ccc(C=C2CCN(Cc3cnc(NC(C)=O)s3)CC2)cc1 [Example 45, N-{5-[(4-{[4-(prop-2-en-1-yloxy)phenyl]methylidene}piperidin-1-yl)methyl]-1,3-thiazol-2-yl}acetamide] | 6.11 nM
COc1ccc(C=C2CCN(Cc3cnc(NC(C)=O)s3)CC2)cc1 [Example 46, N-[5-({4-[(4-methoxyphenyl)methylidene]piperidin-1-yl}methyl)-1,3-thiazol-2-yl]acetamide] | 2 nM
COc1ccccc1C=C1CCN(Cc2cnc(NC(C)=O)s2)CC1 [Example 47, N-(5-((4-(2-methoxybenzylidene)piperidin-1-yl)methyl)thiazol-2-yl)acetamide] | 2.45 nM
CC(=O)Nc1ncc(CN2CCC(=Cc3ccc(-c4ccccc4)cc3)CC2)s1 [Example 48, N-(5-((4-([1,1′-biphenyl]-4-ylmethylene)piperidin-1-yl)methyl)thiazol-2-yl)acetamide] | 53.8 nM
CC(=O)Nc1ncc(CN2CCC(=Cc3ccc([N+](=O)[O-])nc3)CC2)s1 [Example 49] | 1.6 nM
CC(=O)Nc1ncc(CN2CCC(=Cc3ccc(CCO)cc3)CC2)s1 [Example 50, N-(5-((4-(4-(2-hydroxyethyl)benzylidene)piperidin-1-yl)methyl)thiazol-2-yl)acetamide] | 0.241 nM
CC(=O)Nc1ncc(CN2CC/C(=C/c3ccc(F)nc3)C[C@H]2C)s1 [Example 51, (R,Z)—N-(5-((4-((6-fluoropyridin-3-yl)methylene)-2-methylpiperidin-1-yl)methyl)thiazol-2-yl)acetamide] | 218 nM
CC(=O)Nc1ncc(CN2CC/C(=C/c3ccc(F)nc3)C[C@@H]2C)s1 [Example 52, (S,Z)—N-(5-((4-((6-fluoropyridin-3-yl)methylene)-2-methylpiperidin-1-yl)methyl)thiazol-2-yl)acetamide] | 0.389 nM
CC(=O)Nc1ncc(CN2CC/C(=C\c3ccc(F)nc3)C[C@H]2C)s1 [Example 53, (R,E)-N-(5-((4-((6-fluoropyridin-3-yl)methylene)-2-methylpiperidin-1-yl)methyl)thiazol-2-yl)acetamide] | 123 nM
CC(=O)Nc1ncc(CN2CC/C(=C\c3ccc(F)nc3)C[C@@H]2C)s1 [Example 54, (S,E)-N-(5-((4-((6-fluoropyridin-3-yl)methylene)-2-methylpiperidin-1-yl)methyl)thiazol-2-yl)acetamide] | 11.8 nM
